Test results reported in US20230348450A1, “CARBOXYLIC ACID-CONTAINING COMPOUNDS AS MODULATORS OF BIS-PHOSPHOGLYCERATE MUTASE FOR THE TREATMENT OF SICKLE CELL DISEASE” (Genzyme Corporation, priority 2020, published 2023).

Tests used:
hBPGM = hBPGM (Homo sapiens (Human), UniProt P07738); assay: BPGM Synthase Assay; format: biochemical; conditions: Table 6 additional results; read-out: huBPGM: synthase Enzyme IC50
How it was run: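 BPGM (5 nM) with GAPDH (0.4 U/mL) was incubated with compound for 30 min at RT in pH 7.4 Tris buffer with 3.23 mM KH2PO4 and 1 mM DTT. Reaction ran 60 min with NAD, 3PG and GAP (substrate solution 2 mM, 20 μM and 800 μM). After koningic acid stop, NADH fluorescence was read, then resorufin from diaphorase/resazurin coupling.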

[1] = biological target: human Bisphosphoglycerate mutase (hBPGM) (Homo sapiens (Human), UniProt P07738); assay: BPGM Phosphatase Assay; format: biochemical; conditions: Table 6 additional results; read-out: huBPGM: phosphatase Enzyme EC50
Sequence of human Bisphosphoglycerate mutase (hBPGM) (P07738 whole entry): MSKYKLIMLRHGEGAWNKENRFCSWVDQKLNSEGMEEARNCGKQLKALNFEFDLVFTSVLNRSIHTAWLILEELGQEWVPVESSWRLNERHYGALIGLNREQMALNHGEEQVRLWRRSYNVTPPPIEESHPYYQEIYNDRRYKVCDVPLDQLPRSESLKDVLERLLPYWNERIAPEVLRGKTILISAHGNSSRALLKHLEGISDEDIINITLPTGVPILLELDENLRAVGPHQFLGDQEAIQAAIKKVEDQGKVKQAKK
Procedure: Solutions of the test compounds were then added to the plate and the DMSO content was normalized across the plate. The plate was incubated at RT for 15 min. Next, the substrate 2,3-BPG (5 μL) was added to all the wells, and the plate was sealed and incubated for 24 hr at RT. After incubation, BIOMOL green dye (40 μL) was added to all the wells, the plate was shaken to mix, and the plate was incubated at RT for 20-30 min.

Sequence of hBPGM (P07738 whole entry, looked up): as the sequence (P07738 whole entry) above

## Cc1nc(COc2ncccn2)sc1-c1cccc(-c2ccc(C(=O)O)c(C#N)c2)n1 [Example 78]
hBPGM
  IC50: 180 nM
[1]
  EC50: 70 nM

## COC(=O)NCc1nc(C)c(-c2ccnc(-c3cc(O)c(C(=O)O)cc3F)n2)s1 [Example 155]
hBPGM
  IC50: 310 nM
[1]
  EC50: > 25000 nM

## Cc1nc(COc2cccc(N)n2)sc1-c1csc(-c2cc(O)c(C(=O)O)cc2F)n1 [Example 204]
hBPGM
  IC50: 270 nM
[1]
  EC50: 250 nM

## Cc1nc(CN2CCCC2=O)sc1-c1cccc(-c2ccc(C(=O)O)c(O)c2)c1 [Example 260]
hBPGM
  IC50: 1400 nM
[1]
  EC50: 5600 nM

## Cc1cccc(Cc2nc(C)c(-c3cccc(-c4ccc(C(=O)O)c(O)c4)c3)s2)n1 [Example 279]
hBPGM
  IC50: 2600 nM
[1]
  EC50: 6900 nM

## Cc1nc(CNC(=O)C2CC2)sc1-c1ccc(-c2ccc(C(=O)O)c(O)c2)s1 [Example 245]
hBPGM
  IC50: 690 nM
[1]
  EC50: 820 nM

## COC(=O)NCc1nc(C)c(-c2csc(-c3cc(O)c(C(=O)O)c(F)c3F)n2)s1 [Example 135]
hBPGM
  IC50: 40 nM
[1]
  EC50: 70 nM

## Cc1nc(CN)sc1-c1csc(-c2ccc(C(=O)O)c(O)c2)n1 [Example 230]
hBPGM
  IC50: 4400 nM
[1]
  EC50: > 25000 nM

## COC(=O)NCc1nc(C)c(-c2csc(-c3ccc(C(=O)O)c(O)c3)n2)s1 [Example 213]
hBPGM
  IC50: 130 nM
[1]
  EC50: 140 nM

## Cc1nc(CNC(=O)C(N)=O)sc1-c1csc(-c2cc(O)c(C(=O)O)cc2F)n1 [Example 202]
hBPGM
  IC50: 120 nM
[1]
  EC50: 150 nM

## Cc1nc(COc2ncccn2)sc1-c1cccc(-c2ccc(C(=O)O)c(F)c2)n1 [Example 96]
hBPGM
  IC50: 1300 nM
[1]
  EC50: 10 nM

## Cc1nc(COc2cccc(C#N)c2)sc1-c1cccc(-c2ccc(C(=O)O)c(O)c2)c1 [Example 108]
hBPGM
  IC50: 3200 nM
[1]
  EC50: 500 nM

## Cc1nc(CNC(=O)C2CC2)sc1-c1cccc(-c2ccc(C(=O)O)c(O)c2)c1 [Example 276]
hBPGM
  IC50: 480 nM
[1]
  EC50: 590 nM

## Cc1nc(COC(=O)N2CCN(C)CC2)sc1-c1csc(-c2cc(O)c(C(=O)O)cc2F)n1 [Example 118]
hBPGM
  IC50: 180 nM
[1]
  EC50: 130 nM

## Cc1nc(CNC(=O)C(=O)N(C)C)sc1-c1csc(-c2cc(O)c(C(=O)O)cc2F)n1 [Example 203]
hBPGM
  IC50: 210 nM
[1]
  EC50: 980 nM

## Cc1nc(CNC(=O)C2CC2)sc1-c1csc(-c2cc(O)c(C(=O)O)cc2F)n1 [Example 232]
hBPGM
  IC50: 60 nM
[1]
  EC50: 93 nM

## Cc1nc(CNC(=O)C2CC2)sc1-c1cccc(-c2cc(O)c(C(=O)O)cc2F)n1 [Example 236]
hBPGM
  IC50: 130 nM
[1]
  EC50: 360 nM

## Cc1nc(CNc2ccccn2)sc1-c1cccc(-c2ccc(C(=O)O)c(O)c2)c1 [Example 246]
hBPGM
  IC50: 820 nM
[1]
  EC50: 110 nM

## Cc1nc(Cc2ccn(C)n2)sc1-c1csc(-c2ccc(C(=O)O)c(O)c2)c1 [Example 216]
hBPGM
  IC50: 190 nM
[1]
  EC50: 200 nM

## Cc1nc(CNC(=O)C2CCC2)sc1-c1csc(-c2cc(O)c(C(=O)O)cc2F)n1 [Example 220]
hBPGM
  IC50: 52 nM
[1]
  EC50: 63 nM

## Cc1nc(Cc2cccnc2)sc1-c1cccc(-c2cc(O)c(C(=O)O)cc2F)n1 [Example 217]
hBPGM
  IC50: 110 nM
[1]
  EC50: 120 nM

## Cc1nc(C)c(-c2csc(-c3ccc(C(=O)O)c(O)c3F)n2)s1 [Example 240]
hBPGM
  IC50: 2300 nM
[1]
  EC50: 2500 nM

## Cc1nc(CNC(=O)c2ccn(C)n2)sc1-c1csc(-c2cc(O)c(C(=O)O)cc2F)n1 [Example 173]
hBPGM
  IC50: 49 nM
[1]
  EC50: 100 nM

## Cc1nc(Cn2cccn2)sc1-c1cccc(-c2cc(O)c(C(=O)O)cc2F)n1 [Example 223]
hBPGM
  IC50: 150 nM
[1]
  EC50: 190 nM

## Cc1nc(Cc2ccccc2)sc1-c1csc(-c2cc(O)c(C(=O)O)cc2F)n1 [Example 165]
hBPGM
  IC50: 240 nM
[1]
  EC50: 40 nM

## Cc1nc(Cc2ccccc2)sc1-c1cccc(-c2cc(O)c(C(=O)O)cc2F)n1 [Example 162]
hBPGM
  IC50: 140 nM
[1]
  EC50: 60 nM

## Cc1nc(CNC(=O)C2CCNCC2)sc1-c1csc(-c2cc(O)c(C(=O)O)cc2F)n1 [Example 125]
hBPGM
  IC50: 410 nM
[1]
  EC50: 340 nM

## Cc1nc(C)c(-c2csc(-c3ccc(C(=O)O)c(O)c3)c2)s1 [Example 274]
hBPGM
  IC50: 430 nM
[1]
  EC50: 390 nM

## Cc1nc(C)c(-c2csc(-c3ccc(C(=O)O)c(O)c3)n2)s1 [Example 184]
hBPGM
  IC50: 1500 nM
[1]
  EC50: 80 nM

## Cc1ccnc(OCc2nc(C)c(-c3csc(-c4cc(O)c(C(=O)O)cc4F)n3)s2)n1 [Example 133]
hBPGM
  IC50: 50 nM
[1]
  EC50: 80 nM

## Cc1nc(CNCC(C)(C)C)sc1-c1csc(-c2cc(O)c(C(=O)O)cc2F)n1 [Example 147]
hBPGM
  IC50: 610 nM
[1]
  EC50: 50 nM

## Cc1nc(CN)sc1-c1csc(-c2cc(O)c(C(=O)O)cc2F)c1 [Example 251]
hBPGM
  IC50: 270 nM
[1]
  EC50: 400 nM

## Cc1nc(Cc2cccnc2)sc1-c1cccc(-c2ccc(C(=O)O)c(O)c2)c1 [Example 273]
hBPGM
  IC50: 390 nM
[1]
  EC50: 170 nM

## Cc1nc(CNc2ncccn2)sc1-c1cccc(-c2ccc(C(=O)O)cc2)c1 [Example 80]
hBPGM
  IC50: 220 nM
[1]
  EC50: 1700 nM

## Cc1nc(Cn2cccn2)sc1-c1cccc(-c2cc(O)c(C(=O)O)cc2F)c1 [Example 262]
hBPGM
  IC50: 530 nM
[1]
  EC50: 510 nM

## Cc1nc(COC(=O)N(C)CCN(C)C)sc1-c1csc(-c2cc(O)c(C(=O)O)cc2F)n1 [Example 113]
hBPGM
  IC50: 130 nM
[1]
  EC50: 170 nM

## Cc1nc(COc2ccccn2)sc1-c1cccc(-c2cc(O)c(C(=O)O)cc2F)n1 [Example 164]
hBPGM
  IC50: 170 nM
[1]
  EC50: 70 nM

## Cc1nc(COc2ncccn2)sc1-c1cccc(-c2ccc(C(=O)O)c(O)c2)c1 [Example 142]
hBPGM
  IC50: 190 nM
[1]
  EC50: 130 nM

## Cc1nc(Cc2cccnc2)sc1-c1cccc(-c2cc(O)c(C(=O)O)cc2F)c1 [Example 99]
hBPGM
  IC50: 400 nM
[1]
  EC50: 280 nM

## COCCOCCOCCOCc1nc(C)c(-c2csc(-c3ccc(C(=O)O)cc3)n2)s1 [Example 270]
hBPGM
  IC50: 4600 nM
[1]
  EC50: > 25000 nM

## Cc1nc(CNC(=O)OC2CC2)sc1-c1csc(-c2cc(O)c(C(=O)O)cc2F)n1 [Example 215]
hBPGM
  IC50: 95 nM
[1]
  EC50: 55 nM

## Cc1nc(CNc2ncccn2)sc1-c1cccc(-c2ccc(C(=O)O)cc2)n1 [Example 63]
hBPGM
  IC50: 630 nM
[1]
  EC50: > 25000 nM

## Cc1nc(C)c(-c2csc(-c3cc(O)c(C(=O)O)c(F)c3)n2)s1 [Example 255]
hBPGM
  IC50: 760 nM
[1]
  EC50: 1800 nM

## CC(=O)NCc1nc(C)c(-c2cccc(-c3ccc(C(=O)O)c(O)c3)c2)s1 [Example 278]
hBPGM
  IC50: 900 nM
[1]
  EC50: 2100 nM

## Cc1nc(CNC(=O)c2cccnn2)sc1-c1cccc(-c2ccc(C(=O)O)c(O)c2)n1 [Example 148]
hBPGM
  IC50: 250 nM
[1]
  EC50: 280 nM

## Cc1nc(CNC2CCOCC2)sc1-c1cccc(-c2ccc(C(=O)O)cc2)c1 [Example 51]
hBPGM
  IC50: 21000 nM
[1]
  EC50: 4300 nM

## Cc1nc(C)c(-c2nc(-c3ccc(C(=O)O)c(O)c3)co2)s1 [Example 275]
hBPGM
  IC50: 5000 nM
[1]
  EC50: > 25000 nM

## COC(=O)NCc1nc(C)c(-c2csc(-c3ccc(C(=O)O)cc3)n2)s1 [Example 239]
hBPGM
  IC50: 730 nM
[1]
  EC50: > 25000 nM

## Cc1nc(CNC(=O)C(C)(C)C)sc1-c1cccc(-c2ccc(C(=O)O)cc2)c1 [Example 73]
hBPGM
  IC50: 2200 nM
[1]
  EC50: > 25000 nM

## Cc1cccnc1OCc1nc(C)c(-c2cccc(-c3ccc(C(=O)O)c(O)c3)c2)s1 [Example 86]
hBPGM
  IC50: 1500 nM
[1]
  EC50: 200 nM
